Laboratory results: US11878972B2, “Treatment of neurological disorders” (TORQUR AG, priority 2016, dated 2024)

Experiments:
[1] = test system: pS6 S235/S236 in A2058 cells; assay: In-cell Western blot, pS6 S235/S236; type: cell-based; conditions: Homo sapiens, treated for 1 hour, normalized to α-tubulin
Experimental: (§1) Cells are fixed with 4% paraformaldehyde for 30 minutes at room temperature, washed 2 times with 1% BSA in PBS, permeabilized with 0.1% Triton X-100 in PBS/1% BSA for 30 minutes at room temperature and blocked with 5% goat serum in PBS/1% BSA/0.1% Triton X-100 for 30 minutes at room temperature. […] Cells are washed 3 times 5 minutes with PBS/1% BSA/0.1% triton and plate scanned with the Odyssey Infrared Scanning system using both 700 and 800 nm channels. […] To correct for background staining in the data analysis wells are treated only with secondary antibodies.
(§2) For data analysis the mean background signal from channel 700 nm and 800 nm are subtracted from each signal in channel 700 nm and 800 nm, respectively.
(§3) IC50 values of each compound are determined by plotting the normalized pPBK S473 and pS6 S235/S236 signals, respectively, versus the compound concentrations (in logarithmic scale) and then by fitting a sigmoidal dose-response curve with variable slope to the data using GraphPad™ Prism.

pPKB S473 in A2058 cells = assay: In-cell Western blot, pPKB S473; type: cell-based; conditions: Homo sapiens, treated for 1 hour, normalized to α-tubulin
Experimental: as §1, §2, §3

| Structure (SMILES) | IC50 ([1]; A2058, 1 h) [nM] | IC50 (pPKB S473 in A2058 cells; A2058, 1 h) [nM] | IC50 [1] [nM] | IC50 (pPKB S473 in A2058 cells) [nM] |
| --- | --- | --- | --- | --- |
| C[C@@H]1COCCN1c1nc(-c2cnc(N)cc2C(F)F)nc(N2CCOCC23CCC3)n1 [Compound 88, 4-(difluoromethyl)-5-[4-[(3R)-3-methylmorpholin-4-yl]-6-(8-oxa-5-azaspiro[3.5]nonan-5-yl)-1,3,5-triazin-2-yl]pyridin-2-amine] | 192 | 271 |  |  |
| C[C@H]1COCCN1c1nc(-c2cnc(N)cc2C(F)(F)F)nc(N2CCOCC2)n1 [reference compound] |  |  | 90 | 196 |
| C[C@H]1COCCN1c1nc(-c2cnc(N)nc2C(F)(F)F)nc(N2CCOCC2)n1 [reference compound] |  |  | 164 | 91 |
| Nc1cc(C(F)(F)F)c(-c2nc(N3CCOCC3)cc(N3CCOCC3)n2)cn1 [reference compound] | 665 |  |  | 555 |
